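1) Cells in 96-well plates. 2) Compound, 48 h, 5 concentrations. 3) Linear interpolation between surrounding doses. 4) Unreached endpoint = highest concentration. At the TGI there is no net growth.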
What was measured:
Experiment in all cases: NCI tumour cell line growth inhibition, 48 h
IGROV1 ovarian = test system: IGROV1 ovarian
SR leukemia = test system: SR leukemia
RXF-631 renal = test system: RXF-631 renal
KM12 colon = test system: KM12 colon
M14 melanoma = test system: M14 melanoma
SF-539 CNS = test system: SF-539 CNS
NCI-H226 lung = test system: NCI-H226 lung
HCC-2998 colon = test system: HCC-2998 colon
MALME-3M melanoma = test system: MALME-3M melanoma
A549 NSCLC = test system: A549 NSCLC
RXF 393 renal = test system: RXF 393 renal
HL-60(TB) leukemia = test system: HL-60(TB) leukemia
UO-31 renal = test system: UO-31 renal
CCRF-CEM leukemia = test system: CCRF-CEM leukemia
HT29 colon = test system: HT29 colon
OVCAR-4 ovarian = test system: OVCAR-4 ovarian
SK-MEL-5 melanoma = test system: SK-MEL-5 melanoma
MOLT-4 leukemia = test system: MOLT-4 leukemia
SNB-19 CNS = test system: SNB-19 CNS
HCT-116 colon = test system: HCT-116 colon
SF-295 CNS = test system: SF-295 CNS
NCI-H522 lung = test system: NCI-H522 lung
TK-10 renal = test system: TK-10 renal
SK-MEL-2 melanoma = test system: SK-MEL-2 melanoma
NCI-H23 lung = test system: NCI-H23 lung
K-562 leukemia = test system: K-562 leukemia
SNB-75 CNS = test system: SNB-75 CNS
SK-OV-3 ovarian = test system: SK-OV-3 ovarian
SF-268 CNS = test system: SF-268 CNS
ACHN renal = test system: ACHN renal
DMS 273 small cell lung = test system: DMS 273 small cell lung
UACC-62 melanoma = test system: UACC-62 melanoma
HOP-92 NSCLC = test system: HOP-92 NSCLC
SN12C renal = test system: SN12C renal
OVCAR-8 ovarian = test system: OVCAR-8 ovarian
U251 CNS = test system: U251 CNS
786-0 renal = test system: 786-0 renal
SW-620 colon = test system: SW-620 colon
RPMI-8226 leukemia = test system: RPMI-8226 leukemia
HOP-62 NSCLC = test system: HOP-62 NSCLC
CAKI-1 renal = test system: CAKI-1 renal
A498 renal = test system: A498 renal
NCI-H460 lung = test system: NCI-H460 lung
OVCAR-3 ovarian = test system: OVCAR-3 ovarian
SNB-78 CNS = test system: SNB-78 CNS
EKVX NSCLC = test system: EKVX NSCLC
DLD-1 colon = test system: DLD-1 colon
KM20L2 colon = test system: KM20L2 colon
HOP-18 NSCLC = test system: HOP-18 NSCLC
DMS 114 small cell lung = test system: DMS 114 small cell lung
OVCAR-5 ovarian = test system: OVCAR-5 ovarian
LOX IMVI melanoma = test system: LOX IMVI melanoma
M19-MEL melanoma = test system: M19-MEL melanoma
UACC-257 melanoma = test system: UACC-257 melanoma
COLO 205 colon = test system: COLO 205 colon
HCT-15 colon = test system: HCT-15 colon
MCF7 breast = test system: MCF7 breast
NCI/ADR-RES ovarian = test system: NCI/ADR-RES ovarian
SN12K1 renal = test system: SN12K1 renal
SK-MEL-28 melanoma = test system: SK-MEL-28 melanoma
XF 498 CNS = test system: XF 498 CNS

Fc1ccc(C2SCc3nc4ccccc4n32)c(F)c1 (stereo not given)
TGI (IGROV1 ovarian): > 100 µM | TGI (SR leukemia): > 100 µM | TGI (RXF-631 renal): > 100 µM | TGI (KM12 colon): > 100 µM | TGI (M14 melanoma): > 100 µM | TGI (SF-539 CNS): > 100 µM | TGI (NCI-H226 lung): > 100 µM | TGI (HCC-2998 colon): > 100 µM | TGI (MALME-3M melanoma): > 100 µM | TGI (A549 NSCLC): > 100 µM | TGI (RXF 393 renal): > 100 µM | TGI (HL-60(TB) leukemia): 56.2 µM | TGI (UO-31 renal): > 100 µM | TGI (CCRF-CEM leukemia): > 100 µM | TGI (HT29 colon): > 100 µM | TGI (OVCAR-4 ovarian): > 100 µM | TGI (SK-MEL-5 melanoma): 79.6 µM | TGI (MOLT-4 leukemia): > 100 µM | TGI (SNB-19 CNS): > 100 µM | TGI (HCT-116 colon): > 100 µM | TGI (SF-295 CNS): > 100 µM | TGI (NCI-H522 lung): > 100 µM | TGI (TK-10 renal): > 100 µM | TGI (SK-MEL-2 melanoma): > 100 µM | TGI (NCI-H23 lung): > 100 µM | TGI (K-562 leukemia): > 100 µM | TGI (SNB-75 CNS): > 100 µM | TGI (SK-OV-3 ovarian): > 100 µM | TGI (SF-268 CNS): > 100 µM | TGI (ACHN renal): > 100 µM | TGI (DMS 273 small cell lung): > 100 µM | TGI (UACC-62 melanoma): > 100 µM | TGI (HOP-92 NSCLC): 92.4 µM | TGI (SN12C renal): > 100 µM | TGI (OVCAR-8 ovarian): > 100 µM | TGI (U251 CNS): > 100 µM | TGI (786-0 renal): > 100 µM | TGI (SW-620 colon): > 100 µM | TGI (RPMI-8226 leukemia): > 100 µM | TGI (HOP-62 NSCLC): > 100 µM | TGI (CAKI-1 renal): > 100 µM | TGI (A498 renal): > 100 µM | TGI (NCI-H460 lung): > 100 µM | TGI (OVCAR-3 ovarian): > 100 µM | TGI (SNB-78 CNS): > 100 µM | TGI (EKVX NSCLC): > 100 µM | TGI (DLD-1 colon): > 100 µM | TGI (KM20L2 colon): > 100 µM | TGI (HOP-18 NSCLC): > 100 µM | TGI (DMS 114 small cell lung): > 100 µM | TGI (OVCAR-5 ovarian): > 100 µM | TGI (LOX IMVI melanoma): > 100 µM | TGI (M19-MEL melanoma): > 100 µM | TGI (UACC-257 melanoma): > 100 µM | TGI (COLO 205 colon): > 100 µM | TGI (HCT-15 colon): > 100 µM

Nc1ccn(C2C=C(CO)C(O)C2O)c(=O)c1 (stereo not given)
TGI (IGROV1 ovarian): > 625 µM | TGI (KM12 colon): > 625 µM | TGI (SF-539 CNS): > 625 µM | TGI (NCI-H226 lung): > 625 µM | TGI (HCC-2998 colon): > 625 µM | TGI (A549 NSCLC): > 625 µM | TGI (HL-60(TB) leukemia): > 625 µM | TGI (UO-31 renal): > 625 µM | TGI (HT29 colon): > 625 µM | TGI (OVCAR-4 ovarian): > 625 µM | TGI (SK-MEL-5 melanoma): > 625 µM | TGI (SNB-19 CNS): > 625 µM | TGI (HCT-116 colon): > 625 µM | TGI (SF-295 CNS): > 625 µM | TGI (SK-MEL-2 melanoma): > 625 µM | TGI (SNB-75 CNS): > 625 µM | TGI (SK-OV-3 ovarian): > 625 µM | TGI (SF-268 CNS): > 625 µM | TGI (DMS 273 small cell lung): > 625 µM | TGI (UACC-62 melanoma): > 625 µM | TGI (HOP-92 NSCLC): > 625 µM | TGI (SN12C renal): > 625 µM | TGI (MCF7 breast): > 625 µM | TGI (OVCAR-8 ovarian): > 625 µM | TGI (NCI/ADR-RES ovarian): > 625 µM | TGI (SW-620 colon): > 625 µM | TGI (RPMI-8226 leukemia): > 625 µM | TGI (HOP-62 NSCLC): > 625 µM | TGI (CAKI-1 renal): > 625 µM | TGI (NCI-H460 lung): > 625 µM | TGI (OVCAR-3 ovarian): > 625 µM | TGI (SNB-78 CNS): > 625 µM | TGI (SN12K1 renal): > 625 µM | TGI (DLD-1 colon): > 62.5 µM | TGI (KM20L2 colon): > 625 µM | TGI (HOP-18 NSCLC): > 625 µM | TGI (DMS 114 small cell lung): > 625 µM | TGI (LOX IMVI melanoma): > 625 µM | TGI (M19-MEL melanoma): > 625 µM | TGI (COLO 205 colon): > 625 µM | TGI (HCT-15 colon): > 625 µM

COc1ccc(C=O)c([N+](=O)[O-])c1
TGI (IGROV1 ovarian): > 100 µM | TGI (RXF-631 renal): > 100 µM | TGI (KM12 colon): > 100 µM | TGI (M14 melanoma): > 100 µM | TGI (SF-539 CNS): 47.2 µM | TGI (NCI-H226 lung): > 100 µM | TGI (MALME-3M melanoma): > 100 µM | TGI (A549 NSCLC): > 100 µM | TGI (RXF 393 renal): > 100 µM | TGI (HL-60(TB) leukemia): 23.6 µM | TGI (UO-31 renal): > 100 µM | TGI (SK-MEL-28 melanoma): > 100 µM | TGI (CCRF-CEM leukemia): 76.3 µM | TGI (HT29 colon): 63.8 µM | TGI (OVCAR-4 ovarian): > 100 µM | TGI (SK-MEL-5 melanoma): > 100 µM | TGI (MOLT-4 leukemia): > 100 µM | TGI (SNB-19 CNS): > 100 µM | TGI (HCT-116 colon): 26.4 µM | TGI (SF-295 CNS): 64.9 µM | TGI (NCI-H522 lung): > 100 µM | TGI (TK-10 renal): > 100 µM | TGI (SK-MEL-2 melanoma): > 100 µM | TGI (NCI-H23 lung): > 100 µM | TGI (K-562 leukemia): 36 µM | TGI (SNB-75 CNS): > 100 µM | TGI (SK-OV-3 ovarian): > 100 µM | TGI (SF-268 CNS): > 100 µM | TGI (ACHN renal): > 100 µM | TGI (DMS 273 small cell lung): 95.1 µM | TGI (UACC-62 melanoma): > 100 µM | TGI (HOP-92 NSCLC): > 100 µM | TGI (SN12C renal): > 100 µM | TGI (OVCAR-8 ovarian): > 100 µM | TGI (U251 CNS): > 100 µM | TGI (786-0 renal): > 100 µM | TGI (SW-620 colon): > 100 µM | TGI (RPMI-8226 leukemia): > 100 µM | TGI (HOP-62 NSCLC): > 100 µM | TGI (A498 renal): > 100 µM | TGI (XF 498 CNS): > 100 µM | TGI (NCI-H460 lung): > 100 µM | TGI (OVCAR-3 ovarian): > 100 µM | TGI (SNB-78 CNS): > 100 µM | TGI (EKVX NSCLC): > 100 µM | TGI (KM20L2 colon): 45.2 µM | TGI (HOP-18 NSCLC): > 100 µM | TGI (DMS 114 small cell lung): 66.9 µM | TGI (LOX IMVI melanoma): > 100 µM | TGI (M19-MEL melanoma): > 100 µM | TGI (UACC-257 melanoma): > 100 µM | TGI (COLO 205 colon): > 100 µM | TGI (HCT-15 colon): > 100 µM

— PubChem BioAssay (NCI)
